Tests used:
[1] = test system: apyrase; assay: Screen for apyrase inhibitors (Method 1, in vitro phosphate-release absorbance assay); assay type: biochemical; conditions: inhibitor conc at 1 mM stock, 1 hr room temperature, absorbance 630 nm; rounded average of two assay results
Procedure, shortened: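 Phosphate-release colorimetric assay (Windsor method) in 60 mM Hepes, 3 mM MgCl2, 3 mM CaCl2, 3 mM ATP, pH 6.5, with compound or DMSO control added. Released phosphate developed with ammonium molybdate and ascorbic acid/TCA, then stopped with citrate/acetic acid.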

[2] = test system: plant pathogenic fungi (Zymoseptoria tritici strains, Microdochium nivale); assay: In vitro combination assay (Method 2), overall comparison with Roux Compound 13; assay type: cell-based; conditions: azoxystrobin, fluxapyroxad, desthio prothioconazole; three fungal strains
Experimental: (§1) Method 2: In Vitro Assessment of Combination Activity
(§2) Selected compounds were assessed in combination with fungicides against a range of commercially important plant pathogenic fungi.
(§3) The test was conducted as follows. A fungicide was applied to a fungal plant pathogen at a rate slightly below that at which it gave any control, in combination with a suitable dose of the test compound. The test compound was recorded as active if control of the pathogen was observed.
(§4) In more detail, the test was conducted as follows. For each combination of fungicide, pathogen and test compound, the following wells were used. Well 1 contained a fungal pathogen growing on agar, and a fungicide at a rate just below that at which it gave any control of the pathogen. Well 2 was the same as Well 1, except that the test compound was also added at Rate 1. Well 3 was the same as Well 2, except that the test compound was added at Rate 2, where Rate 2 was higher than Rate 1. Finally, as a benchmark, Well 4 was the same as Well 1, except that it contained the fungicide at a higher rate, at which it gave partial control of the pathogen. Each of the Wells 1 to 4 were run in duplicate, giving a total of 8 wells for each combination of fungicide, pathogen and test compound. For each well, after a suitable period of incubation, a visual assessment of the % control of the pathogen by the fungicide was made.
(§5) The following fungicides were used in this assay: azoxystrobin, fluxapyroxad, and desthio prothioconazole. The following fungal pathogens were used in this assay: First, a strain of Zymoseptoria tritici with a reduced susceptibility to strobilurin fungicides; second a strain of Zymoseptoria tritici with a reduced susceptibility to SDHI fungicides (i.e., those that inhibit succinate dehydrogenase); and third, Microdochium nivale.

[3] = test system: Zymoseptoria tritici with a reduced susceptibility to SDHI fungicides; assay: In vitro assessment of combination activity with fungicides (Method 2); assay type: cell-based; conditions: fungicide at a rate just below that giving any control; visual % control;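 also: scored as inactive active or highly active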
Experimental: as §1, §2, §3, §4, §5

[4] = test system: Zymoseptoria tritici with a reduced susceptibility to strobilurin fungicides; assay: as above; assay type: cell-based; conditions: fungicide at a rate just below that giving any control; visual % control;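 also: scored as inactive active or highly active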
Experimental: as §1, §2, §3, §4, §5

[5] = test system: Microdochium nivale; assay: as above; assay type: cell-based; conditions: fungicide at a rate just below that giving any control; visual % control
Experimental: as §1, §2, §3, §4, §5

[6] = test system: Zymoseptoria tritici on wheat; assay: Greenhouse crop test (Method 3), Zymoseptoria tritici on wheat; assay type: in vivo; conditions: Imtrex 0.02 L/ha
Experimental: Method 3: Greenhouse Crop Tests
In this method, exemplary compounds were evaluated for their ability to control Zymoseptoria tritici on wheat, Botrytis cinerea on tomatoes, Asian Soya Rust (Phakopsora pachyrhizi) on soybean, and Brown Rust (Puccinia recondita) on wheat, in a controlled greenhouse environment in combination with one of four fungicides, Amistar, Imtrex, Proline or Balaya. In these studies, soybean cultivar Siverka, tomato (Money maker) and wheat plants (JB Diego) were used. Seeds were sown in 9 cm diameter pots to a depth of 1 to 2 cm using Petersfield potting compost (75% medium grade peat, 12% screened sterilized loam, 3% medium grade vermiculite, 10% grit (5 mm screened, lime free), 1.5 kg PG mix per m3, lime to pH5.5-6.0 and wetting agent (Vitax Ultrawet 200 ml per m3) and germinated/grown at 23 C under a 16 h day/8 h night light regime. Plants were treated two to three weeks after sowing when they were at the BBCH 11 growth stage (first pair of true leaves (unifoliate) unfolded. A track sprayer was used to treat the plants with the mixture of commercial fungicide and test compound using a water volume of 200 L/ha. Plants were inoculated with the appropriate fungi (pathogen) 24 hours after treatment. Fungal pathogens used were Botrytis cinerea (Grey mold on tomato plants), Zymoseptoria tritici (Septoria leaf blotch on wheat plants), Puccinia triticina (Brown rust on wheat plants) and Phakopsora pachyrhizi (Asian soy rust on soybean plants). Four replicates were used for each combination of fungicide, pathogen and test compound. Each plant was evaluated once the disease symptoms were fully expressed between seven to twenty days (depending on the pathogen) for % control of the disease. Appropriate controls were used for all experiments, including an ‘inoculation check’ wherein plants were inoculated with their specific pathogen to assess disease levels. Also, each commercial fungicide was tested on its own as a part of each treatment, this being benchmark against which the experimental compounds were evaluated. […] That is, the present compounds, although not fungicidal by themselves, enhance the activity of fungicides, thus the enhancer compounds work synergistically in combination with fungicides to control disease.
In these studies the fungicide was applied at the following rates
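For enhancement of activity of azoxystrobin in this document: scored as inactive active or highly active.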
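For enhancement of activity of desthio prothioconazole in this document: scored as inactive active or highly active.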
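For enhancement of activity of fluxapyroxad in this document: scored as inactive active or highly active.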

SMILES | % Inhibition of Apyrase [1] [%] | enhancer activity in the combination assay compared with Roux Compound 13 [2] | other results
Cc1ccccc1NS(=O)(=O)c1cc(C(=O)Nc2cccc([N+](=O)[O-])c2)ccc1Cl [I-2, 4-chloro-N-(3-nitrophenyl)-3-(N-(o-tolyl)sulfamoyl)benzamide] | 77 | superior enhancer activity than Roux Compound 13 | 
N#Cc1cccc(NC(=O)c2cccc(S(=O)(=O)Nc3ccc(Br)cc3)c2)c1 [I-16, 3-(N-(4-bromophenyl)sulfamoyl)-N-(3-cyanophenyl)benzamide] | 54 | superior enhancer activity than Roux Compound 13 | 
COc1ccc(NC(=O)c2cccc(S(=O)(=O)Nc3ccc(Br)cc3)c2)cc1 [I-18, 3-(N-(4-bromophenyl)sulfamoyl)-N-(4-methoxyphenyl)benzamide] | 51 | superior enhancer activity than Roux Compound 13 | 
O=C(Nc1ccc(Br)cc1)c1cccc(S(=O)(=O)Nc2cc(C(F)(F)F)ccc2Cl)c1 [I-178, N-(4-bromophenyl)-3-(N-(2-chloro-5-(trifluoromethyl)phenyl)sulfamoyl)benzamide] | 76 | superior enhancer activity than Roux Compound 13 | 
O=C(Nc1cccc(Br)c1)c1cccc(S(=O)(=O)Nc2ccc3c(c2)OCO3)c1 [I-186, 3-(N-(benzo[d][1,3]dioxol-5-yl)sulfamoyl)-N-(3-bromophenyl)benzamide] | 72 | superior enhancer activity than Roux Compound 13 | 
Cc1cc(NC(=O)c2cccc(NS(=O)(=O)c3ccc(F)c(F)c3)c2)ccc1Br [I-191, N-(4-bromo-3-methylphenyl)-3-((3,4-difluorophenyl)sulfonamido)benzamide] | 76 | superior enhancer activity than Roux Compound 13 | 
O=C(Nc1ccc(Br)cc1)c1cccc(S(=O)(=O)Nc2ccc3c(c2)OCO3)c1 [I-201, 3-(N-(benzo[d][1,3]dioxol-5-yl)sulfamoyl)-N-(4-bromophenyl)benzamide] | 77 | superior enhancer activity than Roux Compound 13 | 
Cc1ccc(C(=O)Nc2cccc(NS(=O)(=O)c3ccccc3)c2)cc1F [I-209, 3-fluoro-4-methyl-N-(3-(phenylsulfonamido)phenyl)benzamide] | 75 | superior enhancer activity than Roux Compound 13 | 
O=C(Nc1cccc(C(F)(F)F)c1)c1cccc(NS(=O)(=O)c2cccc(C(F)(F)F)c2)c1 [I-217, N-(3-(trifluoromethyl)phenyl)-3-((3-(trifluoromethyl)phenyl)sulfonamido) benzamide] | 70 | superior enhancer activity than Roux Compound 13 | 
O=C(Nc1cccc(S(=O)(=O)Nc2ccc(Br)cc2)c1)C1CCCCC1 [I-219, N-(3-(N-(4-bromophenyl)sulfamoyl)phenyl) cyclohexanecarboxamide] | 73 | superior enhancer activity than Roux Compound 13 | 
O=C(Nc1cccc(S(=O)(=O)Nc2ccc(Br)cc2)c1)c1ccc(Cl)nc1 [I-221, N-(3-(N-(4-bromophenyl)sulfamoyl)phenyl)-6-chloronicotinamide] | 67 | superior enhancer activity than Roux Compound 13 | 
O=C(/C=C/c1ccco1)Nc1cccc(S(=O)(=O)Nc2ccc(Br)cc2)c1 [I-226, (E)-N-(3-(N-(4-bromophenyl)sulfamoyl)phenyl)-3-(furan-2-yl)acrylamide] | 73 | superior enhancer activity than Roux Compound 13 | 
N#Cc1ccccc1S(=O)(=O)Nc1cccc(C(=O)Nc2cccc(C(F)(F)F)c2)c1 [I-229, 3-((2-cyanophenyl)sulfonamido)-N-(3-(trifluoromethyl)phenyl)benzamide] | 66 | superior enhancer activity than Roux Compound 13 | 
COC(=O)c1ccc(NC(=O)c2ccccc2S(=O)(=O)N(C)c2ccccc2)cc1 [I-233, methyl 4-(2-(N-methyl-N-phenylsulfamoyl)benzamido)benzoate] | 61 | superior enhancer activity than Roux Compound 13 | 
O=C(Nc1cccc(NS(=O)(=O)c2ccc(Br)cc2Cl)c1)c1ccco1 [I-234, N-(3-((4-bromo-2-chlorophenyl)sulfonamido)phenyl)furan-2-carboxamide] | 66 | superior enhancer activity than Roux Compound 13 | enhancement of activity of desthio prothioconazole [3]: enhancing fungicidal activity; enhancement of activity of fluxapyroxad [3]: enhancing fungicidal activity; enhancement of activity of desthio prothioconazole [4]: enhancing fungicidal activity; enhancement of activity of desthio prothioconazole [5]: enhancing fungicidal activity; enhancement of activity of fluxapyroxad [5]: enhancing fungicidal activity
O=C(Nc1cccc(C(F)(F)F)c1)c1cccc(NS(=O)(=O)c2cccc(Cl)c2)c1 [I-317, 3-((3-chlorophenyl)sulfonamido)-N-(3-(trifluoromethyl)phenyl)benzamide] | 69 | superior enhancer activity than Roux Compound 13 | 
Cc1ccc(NS(=O)(=O)c2ccc(C(=O)N3CCc4ccccc43)cc2)cc1 [I-385, 4-(indoline-1-carbonyl)-N-(p-tolyl)benzenesulfonamide] | 65 |  | enhancement of Imtrex over Imtrex alone [6]: greater than 40%
O=C(Nc1ccccc1)c1ccc(S(=O)(=O)Nc2ccccc2)cc1 [I-392, N-phenyl-4-(N-phenylsulfamoyl)benzamide] | 59 |  | enhancement of activity of azoxystrobin [3]: enhanced the activity; enhancement of activity of desthio prothioconazole [3]: highly active; enhancement of activity of azoxystrobin [4]: enhanced the activity; enhancement of activity of desthio prothioconazole [4]: highly active; enhancement of activity of desthio prothioconazole [5]: highly active
COc1cc(Cl)c(C)cc1NC(=O)c1ccccc1S(=O)(=O)N(C)c1ccccc1 [I-807, N-(4-chloro-2-methoxy-5-methylphenyl)-2-(N-methyl-N-phenylsulfamoyl)benzamide] | 82 | superior enhancer activity than Roux Compound 13 | 
O=C(Nc1cccc([N+](=O)[O-])c1)c1cccc(S(=O)(=O)Nc2ccc(Br)cc2)c1 [Roux compound 13, reference compound] |  | little or no activity | enhancement of activity of azoxystrobin [3]: failing to enhance activity; enhancement of activity of desthio prothioconazole [3]: failing to enhance activity; enhancement of activity of fluxapyroxad [3]: failing to enhance activity; enhancement of activity of azoxystrobin [4]: failing to enhance activity; enhancement of activity of desthio prothioconazole [4]: failing to enhance activity; enhancement of activity of fluxapyroxad [4]: failing to enhance activity; enhancement of activity of azoxystrobin [5]: enhancing the activity

Source: patent publication US12685312B2, “Sulfonamide apyrase inhibitors” (Texas Crop Science, Inc., priority 2022, dated 2026)
